# Experimental data: a melting point compilation (Tetko et al.; mined from patent text by program, amines drawn as free bases though some values may be those of a salt)
row,Compound,melting point [°C]
1,CC(C)C(=O)Nc1cccn1C,122 to 124
2,CN(C)Cc1ccc(CSCCNC(=N)N[N+](=O)[O-])o1,103 to 104
3,N#Cc1ccc(-c2cn(-c3ccc(C#N)cc3)c(SCc3cccnc3)n2)cc1,218 to 225
4,NNc1ccc([N+](=O)[O-])cc1F,119 to 121
5,O=c1[nH]c2cc(Cl)ccc2c(O)c1-c1ccc2ccccc2c1,> 350
6,O=C(Cn1cc(Cl)cn1)c1ccc(Br)s1,127
7,CC(C)Nc1nc(-c2nc[nH]n2)cc(Cl)c1-c1c(F)cccc1Cl,152
8,Oc1ccc(-c2ccc(-c3ccccc3)nc2-c2ccc(OCCN3CCCC3)cc2)cc1,176 to 178
9,O=C(O)c1csc(-c2ccc(OCC(F)(F)C(F)F)cc2)n1,170 to 173
10,Oc1ccc(C(O)(c2ccccc2)C(CCCCl)c2ccccc2)cc1 (configuration not stated),75 to 78
11,CN(Cc1ccc(NC(=O)C2=Cc3cc(-c4ccc(C(C)(C)C)cc4)ccc3S(=O)(=O)CC2)cc1)C1CCOCC1,247 to 249
12,CC(=O)NCCn1c(=O)[nH]c2ccccc21,153
13,O=[N+]([O-])c1cnc(Oc2cnc3ccccc3c2)c(Cl)c1,123 to 127
14,Cc1oc(-c2ccccc2)nc1COc1ccc(Cc2nc(-c3ccccc3)c(CCC(=O)O)[nH]2)cc1,193 to 196
15,CN(C)S(=O)(=O)c1ccc2c(c1)CC(Br)C2=O (configuration not stated),115
16,CCCCc1nc2cccc(C(=O)OC)c2n1Cc1ccc(-c2ccccc2C#N)nc1,155 to 156
17,O=C(N1CCN(c2nc(N3CC=CC3)nc(N3CC=CC3)n2)CC1)n1ccnc1,160 to 162
18,O=C(CCC(=O)N1Cc2c(cc3ccc4c(c3c2-c2ccc3c(c2)OCO3)OCO4)C1=O)OCc1ccccc1,128 to 129
19,Cc1ccc(-c2nc(COc3ccc(CCCn4ccnc4)cc3Cl)co2)s1,95 to 96
20,CC1=C(c2ccccc2)C(=O)N(C(C)(C)C(O)C(C)C)CO1 (configuration not stated),42 to 54
21,COc1ccc2c(=O)c(C(N)=O)cn(C)c2c1,304 to 306
22,CCNc1nc(C)c(-c2ccnc(Nc3cccc(S(=O)(=O)NCCO)c3)n2)s1,124 to 125
23,Cc1nsc(NC(=O)Cc2ccc(O)c(N)c2)c1Cl,239 to 243
24,COCOc1ccc(C=CC(C)=O)cc1OC,73 to 75

row,Compound,melting point [°C]
1,CC(C)[C@H](NC(=O)Cc1cc(F)cc(F)c1)C(=O)N[C@@H]1C(=O)Nc2ccccc2S[C@@H]1c1ccccc1,110 to 115
2,CC(C)n1nc(C(=O)Cl)c2ccccc21,63 to 64
3,CCOC(=O)N1C=CC(c2ccc(F)cc2)C(C(=O)OC)=C1 (configuration not stated),83 to 85
4,CC1NC(=O)NN=C1c1ccccc1O (configuration not stated),257 to 261
5,N#CCNC(COCc1cc(C(F)(F)F)cc(C(F)(F)F)c1)C(c1ccccc1)c1ccccc1 (configuration not stated),78 to 80
6,CCc1cccc2sc(COc3ccc(F)c(C(N)=O)c3F)nc12,184 to 186
7,CCC(Cc1ccc(OC)c(CC(=O)Nc2ccc(C(F)(F)F)cc2)c1)C(=O)O (configuration not stated),136 to 137
8,CCC(=O)Oc1ccc(/C(=C(/CC)c2ccccc2)c2ccc(/C=C/C(=O)O)cc2)cc1,158 to 160
9,C#CCOC(=O)c1ncn2c1CN(C)C(=O)c1cc(F)ccc1-2,220 to 222
10,CCC12CCC(c3ccc(Cl)cc3)(OC1)OC2,78
11,FC(F)(F)c1cc(Cl)c2cc(Cl)cc(Cl)c2n1,74 to 76
12,CC(C)(C)OC(=O)ON1C(C)(C)CC(OC(=O)c2ccccc2)CC1(C)C,109 to 111
13,COC(=O)N=C1SCCN1Cc1ccc(Cl)nc1,128 to 130
14,C[C@@H]1C(=O)C[C@H]2C[C@@H]1OO[C@@]2(C)/C=C\c1ccccc1,60
15,COc1ccc(C(C#N)=NO)cc1OC,183 to 191
16,COc1ccccc1-c1cc2c(c(Br)cn2C)c2c1C(=O)NC2=O,216 to 220
17,Nc1cc(I)c(I)cc1N,135 to 136
18,c1ccc2c(c1)OP(N(C1CCCCC1)C1CCCCC1)c1ccccc1-2 (configuration not stated),162
19,CCCN1CCC(C(=O)Nc2ccc(CN(C)C3CCOCC3)cc2)=Cc2cc(-c3ccc(N4CCOCC4)cc3)ccc21,114 to 118
20,O=C(CC1CCOCC1)c1c(O)c2cccnc2n(-c2ccccc2)c1=O,198 to 203
21,Cc1c(C)c2c(c(C)c1NC(=O)CC(C)(C)C)C(C1CCCCC1)C(C)(C)O2 (configuration not stated),198 to 199
22,NC(=O)c1nc(-c2cccc(O)c2)nc2c1[nH]c(=O)n2CC1CCOCC1,363 to 365
23,Cc1ccn2c(=Nc3ccncc3)snc2c1,144 to 145

# Further lines, results first:
row,melting point [°C],Compound
1,217 to 219,Fc1ccc2c(CN3CCN(c4ccc(Cl)cc4)CC3)n[nH]c2c1
2,85 to 96,CNC(=O)c1ccc(Nc2nc(Nc3cc4c(cc3OC)CCN(Cc3ncco3)CC4)ncc2Cl)c(OC)c1
3,333,CCn1c(N)c(C(=O)NC)c(=O)c2ccc(-c3ccc(NS(=O)(=O)c4cccc(Cl)c4Cl)c(F)c3)nc21
4,107 to 108,CN(C)C(=O)N(C)c1nc2cc(C(C)(C)C)ccc2s1
5,250,CC(=O)Nc1c(S(N)(=O)=O)cc(C(=O)O)c(Nc2ccccc2)c1NCc1ccco1
6,195 to 203,CC1C=CC(NC(=O)OC(C)(C)C)C([N+](=O)[O-])C1c1cc([N+](=O)[O-])ccc1Cl (configuration not stated)
7,73 to 75,CCCc1c(OCCCSc2ccc(C(=O)CCCO)cc2)ccc(C(C)=O)c1O
8,128 to 130,COCCOc1ccc(CCCOc2cc(CCC(=O)O)n(C)n2)c(OCc2ccc(Cl)cc2Cl)c1
9,78 to 80,COC(=O)CC(C)N=c1sc2ccccc2s1 (configuration not stated)
10,55 to 56,CCC(=O)OCC1(C)OCC2(CO1)COC(C)(COC(=O)CC)OC2 (configuration not stated)
11,182,CCOC(=O)c1cc(SCc2ccccc2)c(Cl)c(S(N)(=O)=O)c1
12,120 to 128,CCCn1cc(Cc2ccc(C(=O)NS(=O)(=O)c3ccccc3C)cc2OC)c2cc(CC3CCCN(C)C3=O)ccc21 (configuration not stated)
13,120,OC(CN1CCNCC1)Cn1c2ccccc2c2cc(-c3ccccc3)ccc21 (configuration not stated)
14,206 to 208,COc1ccc(C2=NN(C3CCN(C(C)=O)CC3)C(=O)C3CC=CCC23)cc1Cl (configuration not stated)
15,144 to 146,CC(O)Cn1nc2c3c(ccc([N+](=O)[O-])c31)CCC2 (configuration not stated)
16,134 to 136,CCOC(=O)c1cc(OC)ccc1Nc1ccc(O)cc1
17,303 to 305,CNc1nc(Nc2ccc(Cl)c(Cl)c2)ncc1NC(=O)OC
18,174,O=S(=O)(NC1CCC(O)CC1)c1cccc2ccccc12 (configuration not stated)
19,160,Cc1nc2ccc(Cl)nn2c1C(=O)c1ccc(Cl)cc1F
20,58 to 61,CCOC(=O)CSc1nccc(NCCc2ccc(Cl)cc2)n1
21,211,Cc1ccccc1C(=S)NC(=O)Nc1ccc(Cl)cc1
22,110 to 111,Cc1nnc(NCCCC(C)N2CCNCC2)c2cc3ccccn3c12 (configuration not stated)
23,150 to 152,COc1ccc(C(=O)Nc2ccccc2)cc1NCc1ccc(F)c(F)c1
24,93,O=C1c2ccccc2C(=S)N1C1CC=CCC1 (configuration not stated)
25,50 to 55,CCONC(=O)c1ccc(-c2cccc(CN(C)CCCc3ccccc3)c2)cn1
26,200,CC(=O)c1ccc(-c2cnc3c(c2)N(Cc2ccccc2)C(=O)CN3)cc1
27,136 to 138,O=C(NCCN(C1CC1)S(=O)(=O)c1ccccc1[N+](=O)[O-])N1CCN2C(=O)OC(c3ccccc3)(c3ccccc3)C2C1 (configuration not stated)
28,240 to 246,O=C(Nc1ccc(-n2nc(C3CC3)cc2C2CC2)cc1)c1ccc2nn[nH]c2c1

row,melting point [°C],Compound
1,109 to 112,CC(C)(C)OC(=O)Nc1cn(-c2cccnc2)nc1Br
2,215 to 217,Brc1oc2ccc(Cc3nnn[nH]3)cc2c1-c1ccccc1
3,117 to 120,C=CS(=O)(=O)Nc1c(C)cc(C)cc1C
4,104 to 105,CCCc1nn(-c2ccc(C(F)(F)F)cn2)cc1/C=C/C(=O)OCC
5,90 to 91,CCCC(=O)Nc1cccc(-c2cccc(OC)c2)c1
6,158 to 160,CC(=O)NCCNc1cccc(-c2cc(-c3ccc(F)cc3O)nc(NC(=O)c3ccco3)c2C#N)c1
7,81 to 92,O=C(c1ncccc1OC1SCC(O)C(O)C1O)N1CCCCC1 (configuration not stated)
8,89 to 91,Nc1cccc(SC(CCc2ccc(Cl)cc2)Cn2ccnc2)c1 (configuration not stated)
9,255 to 260,Cc1c(CO)ncn1C(c1ccccc1)(c1ccccc1)c1ccccc1
10,164,O=C1CCC(c2ccccc2)(c2ccccc2)C(C[N+](=O)[O-])C1 (racemic)
11,183 to 185,CC(C)Sc1c(C(N)=O)sc2ccccc12
12,> 280,CN1C(=O)Nc2ccc(Cl)cc2C12NC(=O)NC2=O (configuration not stated)
13,141 to 145,CCOC(=O)N1C(NC(C)C)=NS(=O)(=O)c2c1cnn2C
14,176 to 180,COC(=O)[C@H]1NC(=O)[C@H]1NC(=O)Cc1ccccc1 (relative stereo)
15,189 to 190,Cn1c(Cc2c(F)cccc2F)nnc1C(N)=O
16,130 to 135,CC1(c2cccnc2F)OC(=S)N(Nc2ccccc2)C1=O (configuration not stated)
17,172 to 174,ON=CNc1ccc(N2CCOCC2)nc1
18,108 to 110,CCCc1cc(O)nc(NCC)n1
19,158,Cc1cccc(CN2NCC(=O)NC2=O)c1
20,292 to 293,COc1ccc2c(c1)cc1c3c(cccc32)C(=O)OC1=O
21,143 to 147,COC(=O)N[C@H]1CC[C@H](CCN2CCN(c3cccc(Cl)c3Cl)CC2)CC1
22,210 to 211,CCOC(=O)NNc1n[nH]c2cc(Cl)ccc12
23,295 to 298,COc1cccc2cc3c(c(-c4ccc5c(c4)OCO5)c12)CNC3=O
24,157 to 158,Cc1oc(-c2ccccc2)nc1CCOc1ccc(CCCCCC2OC(=O)NC2=O)cc1 (configuration not stated)
25,194 to 195,NS(=O)(=O)c1ccc(S(=O)(=O)N2CCC(=O)CC2)cc1
26,89,FC(F)(F)c1nc[nH]n1
27,207 to 210,CN1CCN(c2ncnc3c([N+](=O)[O-])cccc23)C1=O
